Source: patent US11931431B2, “PSMA-targeted radiopharmaceutical for diagnosing and treating prostate cancer” (FUTURECHEM CO., LTD, priority 2018, dated 2024)
Entries after “also recorded” stand apart in the source; their conditions may differ. Like-named read-outs stand apart in the source and are kept apart here.

Key:
PSMA = PSMA (Homo sapiens, UniProt Q04609); assay: Measurement of binding capacity: competition with [^125I]30 on 22RV1 cells; design: host or cells: 22RV1 human prostate cancer cells
Method: To confirm the binding capacity of the compounds of the present invention to PSMA, the following experiment was performed.
RPMI1640 supplemented with 1% BSA (bovine serum albumin) was used as a buffer solution.
[^125I]30 (0.1 nM) obtained in Comparative Example 1 was added to a vessel containing 22RV1 cells (5×10^4), to which the compound represented by formula 1 was loaded at 9 concentrations (1.00×10^−4˜1.00×10^−12 M), followed by stirring at 37° C. for 2 hours. Upon completion of the stirring, the vessel was washed with PBS solution (2 mL) three times, and then the radioactivity was measured using a gamma counter (2480 WIZARD2 Gamma Counter PerkinElmer Co., MA). The 50% inhibition concentration (IC50) for each compound was calculated using a GraphPad Prism program (GraphPad Software, Inc., CA)
(Maresca, K. P. et al., 2009, J. Med. Chem. 52, 347-357)

PSMA^+ PC-3 PIP tumors = assay: MicroPET/CT imaging of mice transplanted with prostate cancer cell lines; format: in vivo, nude mouse
Method: A tumor model was prepared by subcutaneously injecting PSMA^+ PC-3 PIP cells (a human prostate cancer cell line) to the right side of the nude mouse hind leg. Each of the ^68Ga-labeled compounds [^68Ga]1e, [^68Ga]1g, [^68Ga]1h and [^68Ga]1k was intravenously injected with 5.5 to 6.5 MBq (148-175 μCi/200 μL), and PET/CT images were obtained using small animal INVEON PET/CT (Siemens medical solutions, Knoxville, USA) for 60 minutes. After 150 minutes, 270 minutes, and 390 minutes, PET/CT images were also obtained for 30 minutes. The obtained PET/CT image results were quantitatively analyzed using Inveon™ Research Workplace (IRW).
FIGS. 1, 2, 3, and 4 are graphs showing the quantitative analysis results of MicorPET/CT images for [^68Ga]1e, [^68Ga]1g, [^68Ga]1h, and [^68Ga]1k in % injected dose (ID)/g, and summarized in Tables 3, 4, 5, and 6, respectively.

[1] = 22RV1 cells, [^125I]30 0.1 nM, 37° C., 2 hours, read-out: IC50
[2] = 22RV1 cells, [^125I]30 0.1 nM, 37° C., 2 hours, read-out: Ki value

Sequence of PSMA (Q04609 whole entry): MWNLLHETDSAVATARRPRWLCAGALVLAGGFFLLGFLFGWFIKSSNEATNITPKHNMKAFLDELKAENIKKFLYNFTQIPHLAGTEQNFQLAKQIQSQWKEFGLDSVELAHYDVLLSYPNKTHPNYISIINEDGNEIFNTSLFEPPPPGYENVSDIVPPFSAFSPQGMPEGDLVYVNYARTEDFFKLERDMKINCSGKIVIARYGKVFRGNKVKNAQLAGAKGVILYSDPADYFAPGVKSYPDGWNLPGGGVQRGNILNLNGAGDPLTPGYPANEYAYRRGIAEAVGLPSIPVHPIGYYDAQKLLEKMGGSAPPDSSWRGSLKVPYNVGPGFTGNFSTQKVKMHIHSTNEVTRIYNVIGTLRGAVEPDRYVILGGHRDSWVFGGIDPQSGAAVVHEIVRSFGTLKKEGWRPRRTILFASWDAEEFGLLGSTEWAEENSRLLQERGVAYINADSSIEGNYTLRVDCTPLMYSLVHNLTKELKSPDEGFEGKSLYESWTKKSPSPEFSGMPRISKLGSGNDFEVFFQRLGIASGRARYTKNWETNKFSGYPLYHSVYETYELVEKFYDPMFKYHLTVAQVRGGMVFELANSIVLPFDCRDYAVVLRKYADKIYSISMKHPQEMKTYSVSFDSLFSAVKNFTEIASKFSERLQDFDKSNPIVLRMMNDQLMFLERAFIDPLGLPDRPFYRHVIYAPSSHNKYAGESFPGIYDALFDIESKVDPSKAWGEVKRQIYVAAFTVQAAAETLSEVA

Structure (SMILES): O=C(O)CCC(NC(=O)NC(CCCCN(CC(=O)O)C(=O)COCCOCCNC(=O)C(CCCCNC(=O)CCCc1ccc(I)cc1)NC(=O)CN1CCN2CCN3CCN(CC1)CC(=O)[O][Ga]([O]C(=O)C2)[O]C(=O)C3)C(=O)O)C(=O)O (stereo not shown) [Ga-1h]
- IC50 (PSMA): 11 ± 0.35 nM
- Ki (PSMA): 3 ± 0.1 nM
- binding force / binding capacity to PSMA, in words (PSMA; 22RV1 cells): higher binding capacity than the compound Ga-1e; also recorded: highest binding capacity

Structure (SMILES): O=C(O)CC[C@H](NC(=O)N[C@@H](CCCCN(CC(=O)O)C(=O)COCCNC(=O)CN1CCN2CCN3CCN(CC1)CC(=O)[O][Ga]([O]C(=O)C2)[O]C(=O)C3)C(=O)O)C(=O)O [Ga-1i]
- IC50 (PSMA; [1]): 69 ± 3.27 nM
- Ki (PSMA; [2]): 14.4 ± 0.68 nM

Structure (SMILES): O=C(O)CC[C@H](NC(=O)N[C@@H](CCCCN(CC(=O)O)C(=O)COCCNC(=O)[C@H](CCCCNC(=O)CCCc1ccc(I)cc1)NC(=O)CN1CCN2CCN3CCN(CC1)CC(=O)[O][Ga]([O]C(=O)C2)[O]C(=O)C3)C(=O)O)C(=O)O [Ga-1k]
- IC50 (PSMA; [1]): 63.9 ± 6.09 nM
- Ki (PSMA; [2]): 12.7 ± 1.07 nM

Structure (SMILES): O=C(O)CC[C@H](NC(=O)N[C@@H](CCC(=O)N(CCOCCOCCNC(=O)CN1CCN2CCN3CCN(CC1)CC(=O)[O][Ga]([O]C(=O)C2)[O]C(=O)C3)CC(=O)O)C(=O)O)C(=O)O [Ga-1n]
- IC50 (PSMA; [1]): 174 ± 3.87 nM
- Ki (PSMA; [2]): 32.1 ± 0.71 nM

Structure (SMILES): O=C(O)CC[C@H](NC(=O)N[C@@H](CCC(=O)N(CCOCCOCCNC(=O)CN1CCN2CCN3CCN(CC1)CC(=O)[O][Ga]([O]C(=O)C2)[O]C(=O)C3)CCC(=O)O)C(=O)O)C(=O)O [Ga-1o]
- IC50 (PSMA; [1]): 1140 ± 82.4 nM
- Ki (PSMA; [2]): 282 ± 20.4 nM

Structure (SMILES): O=C(O)CCC(NC(=O)NC(CCC(=O)N(CC(=O)O)Cc1cn(CCOCCNC(=O)CN2CCN3CCN4CCN(CC2)CC(=O)[O][Ga]([O]C(=O)C3)[O]C(=O)C4)nn1)C(=O)O)C(=O)O (stereo not shown) [Ga-1p]
- IC50 (PSMA; [1]): 703 ± 145 nM
- Ki (PSMA; [2]): 130 ± 26.6 nM

Structure (SMILES): O=C(O)CCC(NC(=O)NC(CCCCN(CC(=O)O)C(=O)COCCNC(=O)C(CCCCNC(=O)CCCc1ccc(I)cc1)NC(=O)CN1CCN2CCN3CCN(CC1)CC(=O)[O][68Ga]([O]C(=O)C2)[O]C(=O)C3)C(=O)O)C(=O)O (stereo not shown) [[^68Ga]1k]
- intake of mouse organ: Bladder (PSMA^+ PC-3 PIP tumors; 10 min after injection): 4.12 ± 0.45 % ID/g
- intake of mouse organ: Heart (PSMA^+ PC-3 PIP tumors; 10 min after injection): 21.67 ± 0.44 % ID/g
- intake of mouse organ: Kidney (PSMA^+ PC-3 PIP tumors; 10 min after injection): 11.16 ± 1.35 % ID/g
- intake of mouse organ: Liver (PSMA^+ PC-3 PIP tumors; 10 min after injection): 11.99 ± 4.72 % ID/g
- intake of mouse organ: Muscle (PSMA^+ PC-3 PIP tumors; 10 min after injection): 2.26 ± 0.75 % ID/g
- intake of mouse organ: Tumor (PIP) (PSMA^+ PC-3 PIP tumors; 10 min after injection): 1.85 ± 0.25 % ID/g
- intake of mouse organ: Bladder (PSMA^+ PC-3 PIP tumors; 20 min after injection): 4.68 ± 0.22 % ID/g
- intake of mouse organ: Heart (PSMA^+ PC-3 PIP tumors; 20 min after injection): 20.10 ± 0.29 % ID/g
- intake of mouse organ: Kidney (PSMA^+ PC-3 PIP tumors; 20 min after injection): 11.21 ± 1.62 % ID/g
- intake of mouse organ: Liver (PSMA^+ PC-3 PIP tumors; 20 min after injection): 11.09 ± 3.46 % ID/g
- intake of mouse organ: Muscle (PSMA^+ PC-3 PIP tumors; 20 min after injection): 2.91 ± 1.21 % ID/g
- intake of mouse organ: Tumor (PIP) (PSMA^+ PC-3 PIP tumors; 20 min after injection): 3.22 ± 0.38 % ID/g
- intake of mouse organ: Bladder (PSMA^+ PC-3 PIP tumors; 30 min after injection): 4.68 ± 0.45 % ID/g
- intake of mouse organ: Heart (PSMA^+ PC-3 PIP tumors; 30 min after injection): 18.33 ± 0.13 % ID/g
- intake of mouse organ: Kidney (PSMA^+ PC-3 PIP tumors; 30 min after injection): 10.89 ± 1.36 % ID/g
- intake of mouse organ: Liver (PSMA^+ PC-3 PIP tumors; 30 min after injection): 10.04 ± 2.73 % ID/g
- intake of mouse organ: Muscle (PSMA^+ PC-3 PIP tumors; 30 min after injection): 3.09 ± 0.91 % ID/g
- intake of mouse organ: Tumor (PIP) (PSMA^+ PC-3 PIP tumors; 30 min after injection): 3.94 ± 0.38 % ID/g
- intake of mouse organ: Bladder (PSMA^+ PC-3 PIP tumors; 40 min after injection): 4.75 ± 0.21 % ID/g
- intake of mouse organ: Heart (PSMA^+ PC-3 PIP tumors; 40 min after injection): 17.22 ± 0.35 % ID/g
- intake of mouse organ: Kidney (PSMA^+ PC-3 PIP tumors; 40 min after injection): 11.06 ± 1.02 % ID/g
- intake of mouse organ: Liver (PSMA^+ PC-3 PIP tumors; 40 min after injection): 9.31 ± 2.32 % ID/g
- intake of mouse organ: Muscle (PSMA^+ PC-3 PIP tumors; 40 min after injection): 3.32 ± 1.20 % ID/g
- intake of mouse organ: Tumor (PIP) (PSMA^+ PC-3 PIP tumors; 40 min after injection): 4.40 ± 0.36 % ID/g
- intake of mouse organ: Bladder (PSMA^+ PC-3 PIP tumors; 50 min after injection): 4.83 ± 0.18 % ID/g
- intake of mouse organ: Heart (PSMA^+ PC-3 PIP tumors; 50 min after injection): 16.06 ± 0.38 % ID/g
- intake of mouse organ: Kidney (PSMA^+ PC-3 PIP tumors; 50 min after injection): 10.80 ± 1.20 % ID/g
- intake of mouse organ: Liver (PSMA^+ PC-3 PIP tumors; 50 min after injection): 8.73 ± 2.11 % ID/g
- intake of mouse organ: Muscle (PSMA^+ PC-3 PIP tumors; 50 min after injection): 3.24 ± 1.07 % ID/g
- intake of mouse organ: Tumor (PIP) (PSMA^+ PC-3 PIP tumors; 50 min after injection): 5.03 ± 0.33 % ID/g
- intake of mouse organ: Bladder (PSMA^+ PC-3 PIP tumors; 60 min after injection): 4.81 ± 0.24 % ID/g
- intake of mouse organ: Heart (PSMA^+ PC-3 PIP tumors; 60 min after injection): 15.03 ± 0.27 % ID/g
- intake of mouse organ: Kidney (PSMA^+ PC-3 PIP tumors; 60 min after injection): 10.96 ± 1.18 % ID/g
- intake of mouse organ: Liver (PSMA^+ PC-3 PIP tumors; 60 min after injection): 8.22 ± 1.79 % ID/g
- intake of mouse organ: Muscle (PSMA^+ PC-3 PIP tumors; 60 min after injection): 3.49 ± 1.28 % ID/g
- intake of mouse organ: Tumor (PIP) (PSMA^+ PC-3 PIP tumors; 60 min after injection): 5.45 ± 0.16 % ID/g
- intake of mouse organ: Bladder (PSMA^+ PC-3 PIP tumors; 150 min after injection): 18.10 ± 6.51 % ID/g
- intake of mouse organ: Heart (PSMA^+ PC-3 PIP tumors; 150 min after injection): 7.85 ± 1.63 % ID/g
- intake of mouse organ: Kidney (PSMA^+ PC-3 PIP tumors; 150 min after injection): 11.40 ± 1.13 % ID/g
- intake of mouse organ: Liver (PSMA^+ PC-3 PIP tumors; 150 min after injection): 5.00 ± 1.41 % ID/g
- intake of mouse organ: Muscle (PSMA^+ PC-3 PIP tumors; 150 min after injection): 2.75 ± 1.20 % ID/g
- intake of mouse organ: Tumor (PIP) (PSMA^+ PC-3 PIP tumors; 150 min after injection): 11.00 ± 2.12 % ID/g
- intake of mouse organ: Bladder (PSMA^+ PC-3 PIP tumors; 270 min after injection): 20.10 ± 4.53 % ID/g
- intake of mouse organ: Heart (PSMA^+ PC-3 PIP tumors; 270 min after injection): 5.10 ± 0.85 % ID/g
- intake of mouse organ: Kidney (PSMA^+ PC-3 PIP tumors; 270 min after injection): 9.25 ± 0.78 % ID/g
- intake of mouse organ: Liver (PSMA^+ PC-3 PIP tumors; 270 min after injection): 3.60 ± 0.71 % ID/g
- intake of mouse organ: Muscle (PSMA^+ PC-3 PIP tumors; 270 min after injection): 2.15 ± 0.78 % ID/g
- intake of mouse organ: Tumor (PIP) (PSMA^+ PC-3 PIP tumors; 270 min after injection): 15.70 ± 4.24 % ID/g
- intake of mouse organ: Bladder (PSMA^+ PC-3 PIP tumors; 390 min after injection): 14.25 ± 0.64 % ID/g
- intake of mouse organ: Heart (PSMA^+ PC-3 PIP tumors; 390 min after injection): 3.80 ± 1.41 % ID/g
- intake of mouse organ: Kidney (PSMA^+ PC-3 PIP tumors; 390 min after injection): 7.70 ± 0.71 % ID/g
- intake of mouse organ: Liver (PSMA^+ PC-3 PIP tumors; 390 min after injection): 2.25 ± 0.64 % ID/g
- intake of mouse organ: Muscle (PSMA^+ PC-3 PIP tumors; 390 min after injection): 1.20 ± 0.56 % ID/g
- intake of mouse organ: Tumor (PIP) (PSMA^+ PC-3 PIP tumors; 390 min after injection): 18.25±4.17 % ID/g
- excretion, in words (PSMA^+ PC-3 PIP tumors; MicroPET/CT): rapidly excreted out of the body
- residence time in the blood, in words (PSMA^+ PC-3 PIP tumors; MicroPET/CT): residence time in the blood was increased
- tumor intake over time, in words (PSMA^+ PC-3 PIP tumors; MicroPET/CT): tumor intake continued to increase after 390 minutes
